Where two headings read alike, the source gives them in different places.
How the values were obtained:
[1] = Fluocinolone acetonide concentration in dog plasma after bilateral intraarticular implants (twelve month toxicity study in beagle dogs); assay type: in vivo, Canis familiaris; conditions: other: bilateral intraarticular implants (knee joints)
Experimental: Devices were administered once via bilateral intraarticular implants. The day of surgical implantation was Day 1. The devices were made as follows. Fluocinolone acetonide, USP, was compressed into 1.5 mm diameter tablets using standard pharmaceutical methods. The tablets were placed into preformed cups made from silicone elastomer. Cup size was dependent on dosage form. These cups were attached to […] (PVA) suture tabs. For the 2 mg implants, the surface of the tablet not coated with silicone was attached to a suture tab with PVA solution. For the 6 mg implant, a side of the silicone cup was attached perpendicular to the suture tab. Finally, the assemblies were dip coated with PVA. The implants were then cured at 135° C. for 5 hours and placed within the primary package. The product in the primary package was placed in a self-adhesive pouch and sterilized using gamma irradiation. Surgery was performed on both knee joints of all animals. A lateral skin incision was made to expose the fascia lata overlying the vastus lateralis cranially and the biceps fernoris caudally. The joint was exposed through an incision in the lateral intermuscular septum to expose the femur by anterior retraction of the vastus lateralis and posterior retraction of the biceps femoris. Care was taken not to disrupt the tendon of origin of the long digital extensor as it originates from the lateral femoral condyle. The joint capsule was opened, the patella luxated medially, and the joint was held in full flexion. 2 mg devices were placed in the right leg and 18 mg implants were placed in the left leg. The implants were placed within the anterior intercondyloid fossa, immediately lateral to the origin of the posterior cruciate ligament. The bone may be slightly deepened at this location with a curette to accept the implant. The implant was sutured in place to the posterior cruciate ligament. The joint capsule was closed with 3/0 PDS in a simple interrupted fashion. The retinaculum and intermuscular septum were closed with 2/0 Vicryl in a continuous pattern. The fascia lata were closed with 2/0 PDS, and the subcutaneous tissues with 3/0 PDS, both in a simple continuous pattern. The skin was closed with 3/0 Vicryl in a subcuticular pattern. Blood was collected from a peripheral vessel. Blood volumes represent whole blood and are approximate amounts. The blood samples were processed for plasma, the plasma was extracted, and the plasma was placed immediately in a ≦−70°C. freezer until transferred for analysis.

[2] = Plasma concentration of fluocinolone acetonide after FA screw implant in the stifle joint of sheep; assay type: in vivo, Ovis aries (Sheep); conditions: intra-articular FA screw implants in the stifle joint, FIG. 1
From the text: The objective of this study was to determine both the local and systemic pharmacokinetic profile of an intra-articular fluocinolone acetonide (FA screw) implant in the stifle joint of sheep. The animals underwent surgical implantation of the FA Screw test device in the stifle joint on Day 1. Following a recovery period, blood and synovial fluid were collected periodically for pharmacokinetic determination. Following completion of a 24 month observation period, the animals were euthanized and subjected to necropsy.
Devices were administered once via surgical implantation on Day 1.
The implant was a polymer-coated, sustained-release delivery system for Fluocinolone Acetonide (FA). The implant contained 55 mg of FA and was designed to deliver the drug for approximately 3 years. The tablet core contained approximately 55 mg of FA granulated with 10% PVA. The tablet core was positioned and adhered via an adhesive, such as a silicone adhesive, in the interchangeable head of the bone screw. The overall device geometry was that of a cancellous bone screw (i.e. the base) in which the head of the screw has been hollowed out to accept a removable cup (i.e. the payload) containing the drug tablet. In this embodiment, the screw was approximately 11/16″ in length and is no more than ¼″ at its widest point (i.e. the screw head), The payload was sized to fit into the screw and to accommodate the tablet. […]

Plasma levels [2]: 0 to 0.35 ng/mL
SMILES: CC1(C)O[C@@H]2C[C@H]3[C@@H]4C[C@H](F)C5=CC(=O)C=C[C@]5(C)[C@@]4(F)[C@@H](O)C[C@]3(C)[C@]2(C(=O)CO)O1 [Fluocinolone Acetonide]
concentration at 3 day ([1]; Dog 1001, Day 3, read-out: Assayed Concentrations of Fluocinolone Acetonide in Dog Plasma Samples): 1.89 ng/mL | concentration at 21 day ([1]; Dog 1001, Day 21, read-out: Assayed Concentrations of Fluocinolone Acetonide in Dog Plasma Samples): 0.57 ng/mL | concentration at 7 day ([1]; Dog 3001, Day 7, read-out: Assayed Concentrations of Fluocinolone Acetonide in Dog Plasma Samples): 16.9 ng/mL | concentration at 21 day ([1]; Dog 3001, Day 21, read-out: Assayed Concentrations of Fluocinolone Acetonide in Dog Plasma Samples): 4.92 ng/mL

From patent US6936270B2, “Device and method for treating conditions of a joint” (Control Delivery Systems, Inc., priority 2000, dated 2005)
